In patent publication US20210323918A1, “COMPOSITIONS AND METHODS FOR SUPPRESSING AND/OR TREATING A GROWTH RELATED DISEASE AND/OR A CLINICAL CONDITION THEREOF” (CK Biotech Inc., priority 2018, published 2021):

Assays:
[1] = In vivo pharmacokinetics of KY19382; parameters: species or system Sprague-Dawley (SD) rats; conditions: rat
Description: In vivo pharmacokinetics of KY19382. Animal studies were approved by the Institutional Animal Care and use committee at KRIBB. Briefly, specific pathogen-free male Sprague-Dawley (SD) rats (10 weeks old, body weight 298-315 g), purchased from Koatech Co. (Kyeonggi, Republic of Korea), were given a single dose of KY19382 intravenously (iv, 1 mg/kg, n=3) or intraperitoneal (ip, 5 mg/kg, n=3). […] A 100 μl aliquot of each plasma sample was prepared, and three volumes of ice-cold acetonitrile containing carbamazepine (internal standard) were added. The mixture was centrifuged at 910 g for 10 min, and the supernatant was subjected to LC-MS/MS analysis. Pharmacokinetic parameters were calculated by standard noncompartmental analysis of plasma concentration-time profiles using Kinetica 4.4.1 (Thermo Fisher Scientific, Inc., Woburn, Mass., USA). The areas under the plasma concentration-time curves (AUC) were calculated by the linear-trapezoidal method. Systemic plasma clearance (CLP) was calculated as follows: CLP=dose/AUCinf. […] Volume of distribution at steady state (VSS) was calculated as follows: VSS=dose×AUMCinf/(AUCinf)2, where AUMCinf is the area under the first moment of the plasma concentration-time curve extrapolated to infinity Bioavailability (F) was calculated as follows: F (%)=(AUCip/AUCiv)(doseiv/doseip)×100.

ATDC5 cells = assay: Wnt/β-catenin signaling, proliferation and differentiation in ATDC5 chondrogenic cells; type: cell-based, mouse
From the text: Cell culture and reagents. The mouse chondrogenic cell line, ATDC5, was obtained from the RIKEN Cell Batik. The human juvenile costal chondrocyte cell line, C28/I2, was provided by Dr. W. U. Kim (Catholic University, Korea). HEK293-TOP cells (HEK293 cells containing the chromosomally incorporated TOPFlash gene) were provided by Dr. S. Oh (Kuk Min University, Korea). ATDCS cells were maintained in DMEM/F12 (1:1) (Gibco, Grand Island, N.Y.) supplemented with 5% FBS (Gibco). To induce hypertrophic differentiation, ATDC5 cells were incubated with insulin-transferrin-sodium selenite (ITS) supplement (Gibco) in three-dimensional alginate beads for 3 days, as previously described. See e.g., Kawasaki Y. et al. (2008), Phosphorylation of GSK-3beta by cGMP-dependent protein kinase II promotes hypertrophic differentiation of murine chondrocytes. J CLIN INVEST 118: 2506-2515. C28/I2 and HEK293-TOP cells were maintained in DMEM (Gibco) containing 10% FBS. All chemicals were dissolved in dimethyl sulfoxide (DMSO; Sigma-Aldrich, St Louis, Mo.) for the in vitro studies. For E2 (17β-estradiol; Sigma-Aldrich) treatment, cells were cultured in phenol red-free DMEM/F12 with 5% charcoal-stripped FBS for 24 hours followed by serum-free medium for 24 hours before the experiment. The PTD-DBMP was synthesized by Peptide 2.0 Inc (Chantilly, Va.).
Immunocytochemistry. ATDCS or C28/I2 cells were seeded on glass coverslip in 12-well culture plates. The cells were washed with PBS and fixed with 4% PFA at room temperature for 15 minutes. After permeabilization with 0.1% triton-X-100 for 15 minutes and blocking with 5% BSA for 1 hour, the cells were incubated with primary antibodies specific for β-catenin (1:100) or CXXC5 l (1:200) at 4° C. overnight. The cells were washed in PBS and incubated with Alexa Fluor 488 or Alexa Fluor 555 secondary antibodies (1:200) at room temperature for 1 hour. Cell nuclei were counterstained with DAPI for 10 minutes and the stained samples were examined under a LSM700 META microscope using 405-, 488-, or 543-nm excitation wavelengths. For BrdU assay, cultured cells were incubated with BrdU solution (25 μM) overnight, followed by immunocytochemical staining with antibody against BrdU (1:100).
Immunoblot analyses. […] Protein samples were separated on a 8-12% sodium dodecylsulfate polyacrylamide gel electrophoresis (SDS-PAGE) and transferred to a nitrocellulose membrane (Whatman). Immunoblotting was performed with the following primary antibodies: anti-β-catenin (Santa Cruz Biotechnology, Santa Cruz, Calif., sc-7199; 1:3,000), anti-CXXC5 (lab made;1:200) anti-Myc tag (MBL, Aichi, Japan, M192-3; 1:1,000), anti-FLAG (Sigma-Aldrich, F7425; 1:1,000), anti-p-GSK3β (S9; Cell Signaling Technology, Danvers, Mass., 9336S; 1:1,000), anti-COL2A1 (Santa Cruz Biotechnology, sc-28887; 1:500), anti-RUNX2 (Abcam, ab23981; 1:500), anti-COLIOAI (Cosmo Bio, LSL-LB-0092; 1:500), anti-MMP13 (Santa Cruz Biotechnology, sc-30073; 1:500), anti-ERK (Santa Cruz Biotechnology, sc-94; 1:3,000) and anti-α-tubulin (Cell Signaling Technology, 3873S; 1:20,000). Samples were then incubated with horseradish-peroxidase-conjugated anti-mouse (Cell Signaling Technology, 7076; 1:3,000), anti-rabbit (Bio-Rad, 1706515; 1:3,000), or anti-goat (Santa Cruz Biotechnology; sc-2020; 1:3,000) secondary antibodies. Protein bands were visualized with enhanced chemiluminescence (ECL; Amersham Bioscience, Piscataway, N.J.) using a luminescent image analyzer, LAS-3000 (Fujifilm, Tokyo, Japan). Immunoblot bands were analyzed using Multi-Gauge V3.0 software (Fujifilm). Points of interest (POIs) from immunoblot bands were marked and quantified using densitometry, and the background signals were subtracted from respective immunoblot signals. Relative densitometry values were presented as the intensity ratios of each protein to loading control protein (α-tubulin or ERK).
Immunoprecipitation. Immunoprecipitation was performed as previously described (Kim et al, 2015). […]

[2] = male, Sprague-Dawley, plasma, IP, 5 mg/kg, mean
[3] = male, Sprague-Dawley, plasma, IV, 1 mg/kg, mean
[4] = ATDC5 cells, 0.01 or 0.1 μM, 4 hours, FIG. 12

Which results are given for `CO/N=C1/C(=C2/C(=O)Nc3cc(Cl)c(Cl)cc32)Nc2ccccc21` [KY19382, 5,6-dichloroindirubin-3′-methoxime]?
CL ([1]; IP, 5 mg/kg, mean): 7.83 mL/min/kg; bioavailability ([1]; male, Sprague-Dawley, plasma, intraperitoneal, IP, 5 mg/kg vs IV, 1 mg/kg): 16.7%; AUC(0-t) [1, 2]: 6560 ng·h/mL; Cmax [1, 2]: 463 ng/mL; Tmax [1, 2]: 1 h; half-life [1, 2]: 16.2 h; AUC(0-t) [1, 3]: 7830 ng·h/mL; clearance [1, 3]: 2 mL/min/kg; half-life [1, 3]: 3.33 h; Vd ([1]; male, Sprague-Dawley, plasma, IV, 1 mg/kg, mean, read-out: Vss): 0.33 L/kg; number of BrdU-positive ATDC5 cells (ATDC5 cells; 0.01 or 0.1 μM, 48 hours, FIG. 11A): enhanced number; CXXC5-DVL interaction, immunoprecipitation (ATDC5 cells; ATDC5 cells, 0.1 μM, 4 hours, FIG. 4F): interruption of the CXXC5-DVL interaction; nuclear translocation of β-catenin (ATDC5 cells; ATDC5 cells, 0.1 μM, 48 hours, FIG. 4G): elevated; mRNA levels of chondrogenic markers (ATDC5 cells; ATDC5 cells, 0.1 μM, 3 days, alginate beads, FIG. 11B): upregulated; expression levels of Wnt/β-catenin target genes (Fosl1, Wisp1, Axin2) (ATDC5 cells; [4]): markedly increased; off-target effects: 19 other genes that respond to other pathways, mRNA (ATDC5 cells; [4]): not significantly altered; β-catenin level with inactivation of GSK3β, immunoblot (ATDC5 cells; ATDC5 cells, 24 hours, FIG. 4E): increment of β-catenin
